In PMC10706425, “Enhancing the Antimicrobial Properties of Peptides through Cell-Penetrating Peptide Conjugation: A Comprehensive Assessment” (International Journal of Molecular Sciences, 2023):

Experiments:
S. aureus (129B strain) = test: Antibacterial activity in liquid medium, clinical isolate; assay type: cell-based, Staphylococcus aureus; conditions: BHI medium, 37 °C
Text: (§1) Two S. aureus strains were used: a susceptible strain 209P and a clinical isolate strain 129B (resistant to antibiotics: benzylpenicillin, clindamycin, erythromycin, oxacillin, sulfamethoxazole, and vancomycin). Two MRSA strains were included: a susceptible strain ATCC 43300 (resistant to antibiotics: methicillin, oxacillin (beta-lactam antibiotics), ampicillin (https://www.atcc.org/products/43300 (accessed on 11 November 2023)) and a clinical isolate strain SA 180 (resistant to antibiotics: benzylpenicillin and oxacillin (beta-lactam antibiotics), ciprofloxacin, clindamycin, erythromycin, levomycetin, sulfamethoxazole, and vancomycin). One B. cereus was used: a susceptible strain, IP 5832. Two P. aeruginosa strains were included: a susceptible strain, ATCC 28753, and a resistant strain, 2943. Two E. coli strains were used: a susceptible strain, K12, and a susceptible strain, MG1655.
(§2) Determination of the growth for the bacteria S. aureus strain 209P, MRSA strain ATCC 43300, B. cereus strain IP 5832, P. aeruginosa strain ATCC 28753, and E. coli strain K12 was performed using Mueller–Hinton Broth (MHB) (Sigma-Aldrich, St. Louis, MO, USA). Bacteria of S. aureus (strain 129B) and MRSA (strain SA 180-F) were grown on the brain-heart infusion (BHI) medium, and bacteria of P. aeruginosa (strain 2943) and E. coli (strain MG1655) were grown on the LB medium. The preparation and co-incubation of peptides with bacteria were carried out as described previously. The samples were grown at 37 °C.

[1] = test system: P. aeruginosa (2943 strain); test: Antibacterial activity in liquid medium, resistant strain; assay type: cell-based, Pseudomonas aeruginosa; conditions: LB medium, 37 °C
Text: as §1, §2

S. aureus (209P strain) = test: Antibacterial activity in liquid medium; assay type: cell-based, Staphylococcus aureus; conditions: for Peptide Activity in Liquid Medium after 15 h of Incubation (Gentamicin as Positive Control): 209P strain, Mueller–Hinton broth, 37 °C, 2% DMSO; for Concentrations at which the peptide showed an antimicrobial effect (comparable to gentamicin): 15 h incubation, tested 0.75–12 µM, gentamicin 200 µM, Figures 3, 4
Text: as §1, §2

MRSA (SA 180-F strain) = test: Antibacterial activity in liquid medium, clinical isolate; assay type: cell-based, Methicillin-resistant Staphylococcus aureus; conditions: BHI medium, 37 °C
Text: as §1, §2

MRSA (ATCC 43300 strain) = test: Antibacterial activity in liquid medium; assay type: cell-based, Methicillin-resistant Staphylococcus aureus; conditions: for Concentrations at which the peptide showed an antimicrobial effect (comparable to gentamicin): 15 h incubation, tested 0.75–12 µM, gentamicin 200 µM, Figures 3, 4; for Peptide Activity in Liquid Medium after 15 h of Incubation (Gentamicin as Positive Control): ATCC 43300 strain, Mueller–Hinton broth, 37 °C, 2% DMSO
Text: as §1, §2

[2] = test system: B. cereus (IP 5832 strain); test: Antibacterial activity in liquid medium; assay type: cell-based, Bacillus cereus; conditions: 15 h incubation; tested 0.75–12 µM; gentamicin 200 µM; Figures 3, 4
Text: as §1, §2

E. coli (MG1655 strain) = test: Antibacterial activity in liquid medium; assay type: cell-based, Escherichia coli; conditions: LB medium, 37 °C
Text: as §1, §2

E. coli (K12 strain) = test: Antibacterial activity in liquid medium; assay type: cell-based, Escherichia coli; conditions: for Peptide Activity in Liquid Medium after 15 h of Incubation (Gentamicin as Positive Control): K12 strain, Mueller–Hinton broth, 37 °C, 2% DMSO; for Concentrations at which the peptide showed an antimicrobial effect (comparable to gentamicin): 15 h incubation, tested 0.75–12 µM, gentamicin 200 µM, Figures 3, 4
Text: as §1, §2

[3] = test system: P. aeruginosa (ATCC 28753 strain); test: Antibacterial activity in liquid medium; assay type: cell-based, Pseudomonas aeruginosa; conditions: for Concentrations at which the peptide showed an antimicrobial effect (comparable to gentamicin): 15 h incubation, tested 0.75–12 µM, gentamicin 200 µM, Figures 3, 4; for Peptide Activity in Liquid Medium after 15 h of Incubation (Gentamicin as Positive Control): ATCC 28753, Mueller–Hinton broth, 37 °C, 2% DMSO
Text: as §1, §2

human skin fibroblasts [4] = test: Cytostatic effect, cell cycle phases and mitotic activity; assay type: cell-based; conditions: 50 μg/mL, with and without pre-incubation
Experimental: (§3) The culture of normal human fibroblasts was obtained from the skin areas of the inner surface of the forearm of healthy volunteers after their consent using the explant method. All volunteers gave their informed consent for inclusion before they participated in the study. The study was conducted in accordance with the Declaration of Helsinki, and the protocol was approved by the Ethics Committee of ITEB RAS No. 43/2023. The culture of normal human fibroblasts was obtained from the skin areas of the inner surface of the forearm using the explant method. A 5 × 5 mm skin explant was washed for several minutes in phosphate buffer containing 400 μg/mL gentamicin sulfate. […] After the release of cells from the fragments, the cells were detached from the surface of the culture plastic, and the number of cells was determined. […]
(§4) To determine the mitotic activity, the cells were washed in phosphate-buffered saline (300 g, 5 min) and fixed with 70% ethanol (24 h, −20 °C). Then, they were stained with bisBenzimide H 33342 fluorescent dye at a concentration of 1 μg/mL for 10 min at room temperature, and the number of mitotic cells was counted using a DM 6000 fluorescent microscope (Leica, Wetzlar, Germany). At least 500 cells were analyzed.

BT474 cells = test: Cytotoxic effect, calcein AM / propidium iodide flow cytometry; assay type: cell-based, human; conditions: 50 µg/mL, with and without pre-incubation; 96 h
Experimental: (§5) BT474 human breast duct carcinoma cells were obtained from the American Collection of Type Cell Cultures (Manassas, Virginia, VA, USA). BT474 cells were cultured in DMEM medium (Sigma-Aldrich, St. Louis, MO, USA) supplemented with 10% fetal calf serum (Gibco, Waltham, MA, USA) and 40 μg/mL gentamicin sulfate (Sigma-Aldrich, St. Louis, MO, USA) at 37 °C under conditions of 5% CO2 in the air.
The number of living and dead cells was determined by staining cells with the fluorescent dyes calcein AM (Sigma-Aldrich, St. Louis, MO, USA) and propidium iodide (Sigma-Aldrich, St. Louis, MO, USA). Cells were detached from the surface of the samples using an Accutase cocktail. Cells were stained in L-15 medium with 1% fetal bovine serum containing 1 μg/mL calcein AM and 2 μg/mL propidium iodide for 25 min at 37 °C. Live and dead cells were analyzed using a BD Accuri C6 flow cytometer (BD Bioscience, San Jose, CA, USA).

human skin fibroblasts [5] = test: as above; assay type: cell-based; conditions: 50 µg/mL, with and without pre-incubation; 96 h
Experimental: as §3
The number of living and dead cells was determined by staining cells with the fluorescent dyes calcein AM (Sigma-Aldrich, St. Louis, MO, USA) and propidium iodide (Sigma-Aldrich, St. Louis, MO, USA). […] Live and dead cells were analyzed using a BD Accuri C6 flow cytometer (BD Bioscience, San Jose, CA, USA).

BT-474 cells = test: Cytostatic effect, cell cycle phases and mitotic activity; assay type: cell-based, human; conditions: 50 μg/mL, with and without pre-incubation
Experimental: as §5
To study the distribution of cells over the phases of the cell cycle, cells were collected, washed in phosphate-buffered saline (300 g, 5 min), and fixed with 70% ethanol (24 h, −20 °C). Staining was carried out for 15 min at 37 °C in the following medium: phosphate-buffered saline, 0.1% Triton X100, 10 μg/mL propidium iodide, and 100 μg/mL RNase (Biolot, St. Petersburg, Russia). The analysis was performed using a BD Accuri C6 flow cytometer (BD Bioscience, San Jose, CA, USA). The obtained results were processed in the ModFit LT 4.1 program.
as §4

[6] = Thioflavin T fluorescence assay for amyloid-like aggregates; assay type: physicochemical; conditions: 24 h, 37 °C, 450 rpm; 50 mM TrisHCl pH 7.5, 150 mM NaCl, 20% DMSO; 200 µM ThT; peptide up to 190–380 μM (1 mg/mL)
Text: ThT, a benzothiazole dye, is known for its unique property of binding to amyloids and amyloid-like fibrils. This interaction results in a substantial increase in the fluorescence intensity of ThT, typically observed at a wavelength of around 485 nm.
The spectra of fluorescence intensity of free ThT and in solution with individual peptides were studied by us using the method of fluorescence spectroscopy as described previously.

[7] = over the tested concentration range; cited from earlier work
Experimental: Analysis of the cytostatic effect was performed on the basis of the distribution of cells by phases of the cell cycle and mitotic activity.

bacteria = conditions: cited from earlier work
Text: Generally, the mechanisms by which AMPs act against bacteria depend on the properties of the bacterial cell wall. Gram-positive bacteria have a thick peptidoglycan layer, while Gram-negative bacteria have an outer membrane and a thinner peptidoglycan layer, which can impact the effectiveness of different antimicrobial strategies. […] If the peptide contained only the Antp fragment, then, in general, its antimicrobial activity was lower com ...

Sequence	Peptide Activity in Liquid Medium after 24 h of Incubation (Meropenem as a Positive Control) (S. aureus (129B strain))	Peptide Activity in Liquid Medium after 24 h of Incubation (Meropenem as a Positive Control) [1]	Peptide Activity in Liquid Medium after 15 h of Incubation (Gentamicin as Positive Control) (S. aureus (209P strain))	Concentrations at which the peptide showed an antimicrobial effect (comparable to gentamicin) (S. aureus (209P strain))	Peptide Activity in Liquid Medium after 24 h of Incubation (Meropenem as a Positive Control) (MRSA (SA 180-F strain))	Concentrations at which the peptide showed an antimicrobial effect (comparable to gentamicin) (MRSA (ATCC 43300 strain))	Peptide Activity in Liquid Medium after 15 h of Incubation (Gentamicin as Positive Control) (MRSA (ATCC 43300 strain))	Concentrations at which the peptide showed an antimicrobial effect (comparable to gentamicin) [2]	Peptide Activity in Liquid Medium after 24 h of Incubation (Meropenem as a Positive Control) (E. coli (MG1655 strain))	Peptide Activity in Liquid Medium after 15 h of Incubation (Gentamicin as Positive Control) (E. coli (K12 strain))	Concentrations at which the peptide showed an antimicrobial effect (comparable to gentamicin) [3]	Peptide Activity in Liquid Medium after 15 h of Incubation (Gentamicin as Positive Control) [3]	Proliferative activity (cytostatic effect) (human skin fibroblasts [4])	Cytotoxic effect (BT474 cells)	Cytotoxic effect (human skin fibroblasts [5])	Proliferative activity (cytostatic effect) (BT-474 cells)	ThT fluorescence intensity at ~485 nm [6]	Cytotoxic effect [7]	Concentrations at which the peptide showed an antimicrobial effect (comparable to gentamicin) (E. coli (K12 strain))	Concentration with antibacterial activity, amyloidogenic fragment alone (bacteria)
RKKRRQRRRGGGGITDFGIFIGLGGGGSRQIKIWFQNRRMKWKK [R44K^P, CPP1 + amyloidogenic fragment of S1 from P. aeruginosa + CPP2, dihybrid peptide, 44 a.a]	>1930 µM, 129B strain	≥1930 µM, 2943 strain	12 µM	12 µM	>1930 µM, SA 180-F strain	12 µM	12 µM	3 to 12 µM	>1930 µM, MG1655 strain	>12 µM, K12 strain	6 to 12 µM	6 µM	–	–	–	–	–	–	–	–
ITDFGIFIGLGGGGSRQIKIWFQNRRMKWKK [I31K^P, Amyloidogenic fragment of S1 from P. aeruginosa + CPP2 (Antennapedia fragment), 31 a.a]	>2750 µM, 129B strain	>2750 µM, 2943 strain	>12 µM, 209P strain	did not show strong effects	>2750 µM, SA 180-F strain	did not show strong effects	>12 µM, ATCC 43300 strain	12 µM	>2750 µM, MG1655 strain	>12 µM, K12 strain	not found	>12 µM, ATCC 28753	did not even suppress their proliferative activity	lacked cytotoxic effects	lacked cytotoxic effects	did not even suppress their proliferative activity	–	–	–	–
RKKRRQRRRGGGGITDFGIFIGL [R23L^P]	>3780 µM, 129B strain	≥3780 µM, 2943 strain	12 µM	12 µM	>3780 µM, SA 180-F strain	12 µM	12 µM	1.5 to 12 µM	≥3780 µM, MG1655 strain	12 µM	6 to 12 µM	–	did not even suppress their proliferative activity	lacked cytotoxic effects	lacked cytotoxic effects	did not even suppress their proliferative activity	multiple increase in the fluorescence intensity of ThT	not been shown to have significant effects	12 µM	–
VTDFGVFVEIGGGGSRQIKIWFQNRRMKWKK [V31K^T]	>2730 µM, 129B strain	>2730 µM, 2943 strain	>12 µM, 209P strain	–	>2730 µM, SA 180-F strain	–	>12 µM, ATCC 43300 strain	–	>2730 µM, MG1655 strain	>12 µM, K12 strain	–	>12 µM, ATCC 28753	–	–	–	–	–	–	no significant antimicrobial effects	–
VTDFGVFVEI [Amyloidogenic fragment from S1 T. thermophilus]	–	–	–	–	–	–	–	–	–	–	–	–	–	–	–	–	–	–	–	913 µM
